Usually pKa stands for the pH at which an ionisable group is half protonated.

Among the data in patent US10639376B2, “Pharmaceutical compositions having improved storage stability” (ALKERMES PHARMA IRELAND LIMITED, priority 2012, dated 2020) are pKa values, retold here.

The nature of the data set: Solubility of Compound 1 in vehicles with various amounts of sorbitan monolaurate. The data set is classed as physicochemical. The settings on record: from trend of Compound 1 concentration as a function of pH at a given SML concentration; read-out: estimated pKa. Here is the method: The solubility of Compound 1 was determined in vehicles containing 10 mM pH 7 phosphate buffer, 0.2% polysorbate 20 (PS), 0.8% saline, and various amounts of sorbitan monolaurate (SML). […] At a given SML concentration, the trend of Compound 1 concentration as a function of pH is consistent with an estimated pKa of ˜7. […] The degradation of dissolved Compound 1 was further followed in the drug vehicle containing 0.50% SML and 0.2% PS.

On to `CCCCCCCCCCCC(=O)OCN1C(=O)CCc2ccc(OCCCCN3CCN(c4cccc(Cl)c4Cl)CC3)cc21` [Compound 1], for which the pKa is roughly 7.
